# In patent US8304182B2, “Methods of identifying anti-cancer agents and uses thereof” (The Trustees of the University of Pennsylvania, priority 2003, dated 2012):
# Key:
# bax^−/−bak^−/− MEFs = assay type: cell-based, mouse
# [1] = assay type: cell-based, mouse
# ATP = test: Determination of cellular ATP; assay type: cell-based, mouse
# p53^−/− MEFs = assay type: cell-based, mouse
# [2] = system: Mouse bone marrow derived macrophages; assay type: cell-based
smiles,measurement,setting,value
O=c1[nH]ccc2c(O)cccc12 [DHIQ],block of MNNG-induced cell death,bax^−/−bak^−/− MEFs,fully
same,effect on MNNG-induced cell death rate,parp-1^−/− MEFs,did not affect the cell death rate
O=C1NCCc2c(OCCCCN3CCCCC3)cccc21 [DPQ],prevention of MNNG-induced NAD depletion,[1],could be prevented
same,prevention of MNNG-induced ATP depletion,ATP,could be prevented
COc1cc([C@@H]2c3cc4c(cc3[C@@H](O[C@@H]3O[C@@H]5CO[C@@H](C)O[C@H]5[C@H](O)[C@H]3O)[C@H]3COC(=O)[C@H]23)OCO4)cc(OC)c1O [etoposide],cell death (cell survival by PI exclusion),p53^−/− MEFs,resistant
same,cell death (cell survival by PI exclusion),bax^−/−bak^−/− MEFs,resistant
CN[C@@H]1C[C@H]2O[C@@](C)([C@@H]1OC)n1c3ccccc3c3c4c(c5c6ccccc6n2c5c31)C(=O)NC4 [staurosporine],cell death (cell survival by PI exclusion),p53^−/− MEFs,induced cell death
same,cell death,bax^−/−bak^−/− MEFs,no cell death was observed
same,TNFα production by macrophages,[2],failed to do so
same,cell death,"parp-1^−/− MEFs; parp-1^−/− cells, staurosporine, FIG. 3F",killed
